Test results taken from PubChem BioAssay AID2060912 (Molecular Pharmacology Branch, DTP, NCI, 2025).

Tested on: HUVEC/MSC spheroids viability
Test: Human HUVEC/MSC cell line growth inhibition [KRAS2];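 on viability, T/C: percent of DMSO vehicle control luminescence so 100% = untreated viability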
Conditions: for IC50: curve of first compound; for viability, T/C: stronger effect = lower value
Outline: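 Spheroids of human HUVEC plus MSCs, without tumor cells, were treated with single agents and combinations. Each drug was tested in half-log steps down from near its clinical Cmax, or from 10 microM when Cmax was unknown. HUVEC and hMSC were used at passage </=5.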

CC(=O)Nc1cccc(-n2c(=O)n(C3CC3)c(=O)c3c(Nc4ccc(I)cc4F)n(C)c(=O)c(C)c32)c1 + C=CC(=O)N1CCN(c2nc(OCC3CCCN3C)nc3c2CCN(c2cccc4cccc(C)c24)C3)CC1CC#N
IC50 (second compound 0.00949 µM): 18.9 nM | IC50 (second compound 0.03 µM): 17.3 nM | IC50 (second compound 0.0949 µM): 15.4 nM | IC50 (second compound 0.3 µM): 13.4 nM | IC50 (second compound 0.949 µM): 15.3 nM | IC50 (second compound 3 µM): 1.85 nM | viability, T/C (second compound 0.00949 µM, first compound 94.9 pM): 95.3% | viability, T/C (second compound 0.00949 µM, first compound 0.0003 µM): 129% | viability, T/C (second compound 0.00949 µM, first compound 0.000949 µM): 125% | viability, T/C (second compound 0.00949 µM, first compound 0.003 µM): 116% | viability, T/C (second compound 0.00949 µM, first compound 0.00949 µM): 90.5% | viability, T/C (second compound 0.00949 µM, first compound 0.03 µM): 23% | viability, T/C (second compound 0.03 µM, first compound 94.9 pM): 104% | viability, T/C (second compound 0.03 µM, first compound 0.0003 µM): 116% | viability, T/C (second compound 0.03 µM, first compound 0.000949 µM): 112% | viability, T/C (second compound 0.03 µM, first compound 0.003 µM): 115% | viability, T/C (second compound 0.03 µM, first compound 0.00949 µM): 83.8% | viability, T/C (second compound 0.03 µM, first compound 0.03 µM): 18.9% | viability, T/C (second compound 0.0949 µM, first compound 94.9 pM): 97.7% | viability, T/C (second compound 0.0949 µM, first compound 0.0003 µM): 130% | viability, T/C (second compound 0.0949 µM, first compound 0.000949 µM): 133% | viability, T/C (second compound 0.0949 µM, first compound 0.003 µM): 94.9% | viability, T/C (second compound 0.0949 µM, first compound 0.00949 µM): 71.5% | viability, T/C (second compound 0.0949 µM, first compound 0.03 µM): 23.5% | viability, T/C (second compound 0.3 µM, first compound 94.9 pM): 67% | viability, T/C (second compound 0.3 µM, first compound 0.0003 µM): 98.3% | viability, T/C (second compound 0.3 µM, first compound 0.000949 µM): 114% | viability, T/C (second compound 0.3 µM, first compound 0.003 µM): 97.8% | viability, T/C (second compound 0.3 µM, first compound 0.00949 µM): 63.6% | viability, T/C (second compound 0.3 µM, first compound 0.03 µM): 18.6% | viability, T/C (second compound 0.949 µM, first compound 94.9 pM): 84.9% | viability, T/C (second compound 0.949 µM, first compound 0.0003 µM): 91.8% | viability, T/C (second compound 0.949 µM, first compound 0.000949 µM): 108% | viability, T/C (second compound 0.949 µM, first compound 0.003 µM): 86.7% | viability, T/C (second compound 0.949 µM, first compound 0.00949 µM): 73.4% | viability, T/C (second compound 0.949 µM, first compound 0.03 µM): 17.2% | viability, T/C (second compound 3 µM, first compound 94.9 pM): 96.2% | viability, T/C (second compound 3 µM, first compound 0.0003 µM): 105% | viability, T/C (second compound 3 µM, first compound 0.000949 µM): 73.8% | viability, T/C (second compound 3 µM, first compound 0.003 µM): 32.6% | viability, T/C (second compound 3 µM, first compound 0.00949 µM): 2.04% | viability, T/C (second compound 3 µM, first compound 0.03 µM): 1.27%
